Measurements published in patent US7232690B1, “Method and device for detecting and isolating pharmacological compounds being contained in substance mixtures” (LTS Lohmann Therapie-Systeme AG, priority 1999, dated 2007).
Like-named read-outs stand apart in the source and are kept apart here.

Assays:
Thrombin [1] = target: T1, Thrombin (Homo sapiens, UniProt P00734); assay: Thrombin inhibition constant (Ki); type: biochemical; settings: read-out: Ki [μmol/l] Thrombin
Trypsin = target: T2, Trypsin (Bos taurus, UniProt P00760); assay: Trypsin inhibition constant (Ki); type: biochemical; settings: read-out: Ki [μmol/l] Trypsin
T2 sequence (P00760 24-246): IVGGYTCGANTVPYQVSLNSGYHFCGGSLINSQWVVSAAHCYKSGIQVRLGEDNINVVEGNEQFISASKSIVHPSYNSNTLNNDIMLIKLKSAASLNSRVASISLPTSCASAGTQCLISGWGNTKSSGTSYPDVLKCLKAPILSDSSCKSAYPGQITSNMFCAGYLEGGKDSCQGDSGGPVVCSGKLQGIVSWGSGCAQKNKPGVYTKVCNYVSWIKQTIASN

serine protease trypsin = assay: Ultrafiltration target-binding test of non-equimolar amidinophenylalanine mixture with trypsin (Example 2); settings: applied 6 8.4, 7 41.25, 10 2.5 μmol/l
Protocol: (§1) Incubation of the substance library and the inhibitor with thrombin took place at room temperature within 1 hour; solvent: 0.9% of NaCl in H2O. The separation of the protein-ligand complexes formed was accomplished by ultrafiltration (centrifugal). All filtration procedures and washes were carried out until dryness of the filters.
(§2) Filter: Microcon 10 (Amicon)
(§3) Centrifugation conditions: 9981×g, room temperature
(§4) Washing steps: 2×, each with 150 μl of 0.9% NaCl in H2O, 4° C.
(§5) Ultrafiltration and analysis of the filtrate were followed by washing steps and the liberation of the ligand (the active chemical substance) from the protein-ligand complex retained on the filter by treatment with 200 μl of water/methanol/TFA (49.5/49.5/1) at room temperature.
(§6) The blind sample (without thrombin) was treated analogously in all steps so that a comparison of the filtrates was possible. The filtrates obtained in all steps were dried by means of a speed-VAC concentrator, and later dissolved in the corresponding HPLC flow agent of defined amount applying ultrasound and agitation.
Identification of the ligands was accomplished by analytic HPLC: stationary phase Hypersil C 18 BDS, 3 μm, 150*0.3 mm, Fusica (LC Packings)—mobile phase: acetonitrile/water/TFA (35/65/0.01), isocratic, 5 μL/min, λ=[…].
The trypsin inhibitors of 3-amidinophenylalanine represented in the following by their structural formulae, were used as chemical substances, and the serine protease trypsin as target:
The experiments were performed as described in Example 1.

serine protease thrombin = serine protease thrombin (Homo sapiens, UniProt P00734); assay: Ultrafiltration target-binding test of substance library with thrombin, HPLC of filtrates (Example 1); settings: 10 μmol/l each substance, 5 μmol/l thrombin, 1 hour room temperature
Protocol: As a target, the serine protease thrombin was chosen.
The examined assays were of the following composition:
as §1, §2, §3, §4, §5, §6
Identification of the ligands was accomplished by analytic HPLC: stationary phase Hypersil C 18 BDS, 3 μm, 150*0.3 mm, Fusica (LC Packings)—mobile phase: acetonitrile/water/TFA (35/65/0.01), isocratic, 5 μL/min, λ=[…]. […]

Thrombin [2] = target: T1, Thrombin; settings: thrombin inhibitor CRC 220 of Behringwerke; cited from earlier work

Ki (Thrombin [1]) [µmol/L]	Ki (Trypsin) [µmol/L]	1st Wash (serine protease trypsin; Sample 261, without trypsin) [µmol/L]	2nd Wash (serine protease trypsin; Sample 261, without trypsin) [µmol/L]	Filtrate (serine protease trypsin; Sample 261, without trypsin) [µmol/L]	Liberation (serine protease trypsin; Sample 261, without trypsin) [µmol/L]	1st Wash (serine protease trypsin; Sample 262, trypsin 50 μmol/l) [µmol/L]	2nd Wash (serine protease trypsin; Sample 262, trypsin 50 μmol/l) [µmol/L]	Filtrate (serine protease trypsin; Sample 262, trypsin 50 μmol/l) [µmol/L]	Liberation (serine protease trypsin; Sample 262, trypsin 50 μmol/l) [µmol/L]	Binding to target thrombin (difference between main experiment and blind sample) (serine protease thrombin)	SMILES	Ki (Thrombin [2]) [nM]
0.0021	0.067	0.71	0.05	7.44	0.01	0.23	0.15	0.67	6.09	–	CS(=O)(=O)N1CCN(C(=O)C(Cc2cccc(C(=N)N)c2)NS(=O)(=O)c2ccc3ccccc3c2)CC1 (stereo not shown) [Substance 6]	–
–	–	–	–	–	–	–	–	–	–	not an inhibitor	Cl.Clc1cccc(Cl)c1NC1=NCCN1 [clonidin-HCL]	–
0.36	0.02	0.02	0.0013	0.05	0.0011	0.0058	0.0012	0.02	0.53	–	CCOC(=O)C1CCN(C(=O)C(Cc2cccc(C(=N)N)c2)NS(=O)(=O)c2ccc3ccccc3c2)CC1 (stereo not shown) [Substance 10]	–
–	–	–	–	–	–	–	–	–	–	–	COc1cc(C)c(S(=O)(=O)N[C@@H](CC(=O)O)C(=O)N[C@H](Cc2ccc(C(=N)N)cc2)C(=O)N2CCCCC2)c(C)c1C [CRC 220]	2.5
